According to the supplement of paper PMC10307832:

What was measured:
Assay in all cases: relative viability (nuclei count vs DMSO), 5 days (fraction); higher = more cells survive
[1] = compound: C=CC(=O)Nc1cc(-n2c(=O)ccc3cnc4ccc(-c5ccc(NS(C)(=O)=O)cc5)cc4c32)ccc1C [BMX-IN-1] + CC(C)C[C@H](NC(=O)[C@H](Cc1ccccc1)NC(=O)c1cnccn1)B(O)O [Bortezomib] (partner 0.002 µM)
In short: (§1)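 Nuclei were stained with Hoechst during a one-step fixation (final 0.05% Triton X-100, 1% formaldehyde, 1 ug/ml Hoechst) carried out 5 days after dosing, then counted on 4× images. The cells, lung cancer lines in 1536-well plates, had been dosed by pin tool the day after seeding with one drug alone or a fixed anchor-drug dose plus five library-drug doses (not always all listed) in √10 steps. Relative viability is the nuclei count in treated wells divided by that in vehicle wells, and each value is the median of duplicate plates.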

[2] = compound: C=CC(=O)Nc1cc(-n2c(=O)ccc3cnc4ccc(-c5ccc(NS(C)(=O)=O)cc5)cc4c32)ccc1C [BMX-IN-1] + C[C@@H](Oc1cc(-c2cnn(C3CCNCC3)c2)cnc1N)c1c(Cl)ccc(F)c1Cl [Crizotinib] (partner 1 µM)
In short: as §1

[3] = compound: C=CC(=O)N1CCC[C@@H](n2nc(-c3ccc(Oc4ccccc4)cc3)c3c(N)ncnc32)C1 [Ibrutinib] + CC(C)C[C@H](NC(=O)[C@H](Cc1ccccc1)NC(=O)c1cnccn1)B(O)O [Bortezomib] (partner 0.002 µM)
In short: as §1

[4] = compound: C=CC(=O)Nc1cc(-n2c(=O)ccc3cnc4ccc(-c5ccc(NS(C)(=O)=O)cc5)cc4c32)ccc1C [BMX-IN-1] + Cc1nc(Nc2ncc(C(=O)Nc3c(C)cccc3Cl)s2)cc(N2CCN(CCO)CC2)n1 [Dasatinib] (partner 0.075 µM)
In short: as §1

Row | Cell Line | relative viability ([1]; first compound 0.02 µM) | relative viability ([1]; first compound 0.2 µM) | relative viability ([1]; first compound 0.6325 µM) | relative viability ([1]; first compound 2 µM) | relative viability ([2]; first compound 0.02 µM) | relative viability ([2]; first compound 0.2 µM) | relative viability ([2]; first compound 0.6325 µM) | relative viability ([2]; first compound 2 µM) | relative viability ([3]; first compound 0.005 µM) | relative viability ([3]; first compound 0.01581 µM) | relative viability ([3]; first compound 0.05 µM) | relative viability ([3]; first compound 0.1581 µM) | relative viability ([3]; first compound 0.5 µM) | relative viability ([4]; first compound 0.02 µM) | relative viability ([4]; first compound 0.2 µM) | relative viability ([4]; first compound 0.6325 µM) | relative viability ([4]; first compound 2 µM)
1 | NCI-H2087 | 1.09 | 0.959 | 1.07 | 0.814 | 0.902 | 1.02 | 1.01 | 1.03 | 0.755 | 0.741 | 0.851 | 0.844 | 0.889 | 1.25 | 0.931 | 1.03 | 0.926
2 | NCI-H661 | 0.86 | 0.785 | 0.841 | 0.685 |  | 0.96 | 1.14 | 0.976 | 0.833 | 0.748 | 0.652 | 0.838 | 0.611 | 0.993 | 0.852 | 1 | 0.946
3 | COR-L 105 | 0.965 | 0.697 | 1.03 | 0.659 | 0.832 | 0.892 | 0.727 | 0.583 | 0.514 | 0.607 | 0.512 | 0.683 | 0.348 | 0.324 | 0.297 | 0.342 | 0.305
4 | BEN | 0.808 | 0.95 | 0.7 | 0.772 | 1.25 | 1.05 | 0.537 | 0.901 | 0.54 | 0.828 | 0.667 | 0.57 | 0.572 | 0.308 | 0.34 | 0.241 | 0.295
5 | NCI-H2023 | 1.21 | 1.19 | 1.27 | 1.08 | 0.865 | 0.639 | 0.753 | 0.676 | 0.848 | 0.819 | 0.949 | 1.04 | 0.876 | 0.767 | 0.637 | 0.667 | 0.682
6 | NCI-H2342 |  |  |  |  |  |  |  |  |  |  |  |  |  | 0.31 | 0.326 | 0.307 | 0.327
7 | NCI-H2170 |  |  |  |  | 1.5 | 1.27 | 1.1 | 1.38 |  |  |  |  |  | 0.609 | 0.634 | 0.67 | 0.586
8 | LK-2 |  |  |  |  | 0.232 | 0.207 | 0.252 | 0.191 |  |  |  |  |  | 0.338 | 0.325 | 0.304 | 0.282
9 | NCI-H522 |  |  |  |  |  |  |  |  |  |  |  |  |  | 0.894 | 1.02 | 0.89 | 0.821
10 | NCI-H1623 |  |  |  |  |  |  |  |  |  |  |  |  |  | 0.529 | 0.526 | 0.569 | 0.504
11 | HCC-44 | 0.902 | 1.06 | 1.07 | 0.957 | 0.907 | 0.834 | 0.944 | 0.889 | 0.896 | 0.881 | 0.987 | 0.908 | 0.946 |  |  |  | 
12 | IA-LM | 0.884 | 0.928 | 0.984 | 0.884 | 0.875 | 0.865 | 0.99 | 0.772 | 0.846 | 0.781 | 0.926 | 0.989 | 0.863 |  |  |  | 
13 | EBC-1 | 0.574 | 0.581 | 0.626 | 0.598 | 0.195 | 0.202 | 0.162 | 0.197 | 0.693 | 0.524 | 0.555 | 0.668 | 0.486 |  |  |  | 
14 | NCI-H358 |  |  |  |  | 0.498 | 0.611 | 0.538 | 0.512 |  |  |  |  |  | 0.166 | 0.145 | 0.176 | 0.135
15 | NCI-H1395 |  |  |  |  |  |  |  |  |  |  |  |  |  | 0.408 | 0.579 | 0.462 | 0.391
